Reference: US20190381025A1, “SOLID DISPERSIONS OF (R)-N-((4-METHOXY-6-METHYL-2-OXO-1,2-DIHYDROPYRIDIN-3-YL)METHYL)-2-METHYL-1-(1-(1-(2,2,2-TRIFLUOROETHYL)PIPERIDIN-4-YL)ETHYL)-1H-INDOLE-3-CARBOXAMIDE” (Constellation Pharmaceuticals, Inc., priority 2017, published 2019)

Experiment: pharmacokinetic studies (PK) of solid dispersions in fasted, famotidine or pentagastrin pre-treated dogs
Format: in vivo
Settings: above pH 2.5; dogs following pre-treatment with famotidine (FIG. 1)
Method: Several rounds of pharmacokinetic studies (PK) were performed and included four diverse solid dispersions comprising 50 wt % amorphous (R)—N-((4-methoxy-6-methyl-2-oxo-1,2-dihydropyridin-3-yl)methyl)-2-methyl-1-(1-(1-(2,2,2-trifluoroethyl)piperidin-4-yl)ethyl)-1H-indole-3-carboxamide and PVP, PVP-PA with NaHCO3, HPMC, and HPMC-AS polymer systems, in fasted, famotidine treated dogs at a 30 mg/kg dose.
All solid dispersions were prepared as aqueous suspensions at 60 mg/mL in the toxicology vehicle, 0.5% MC/0.1% Tween 80 and does with 30 minutes of preparation. All dogs tested were carried over from study to study.

absorption: reduced absorption
SMILES: COc1cc(C)[nH]c(=O)c1CNC(=O)c1c(C)n([C@H](C)C2CCN(CC(F)(F)F)CC2)c2ccccc12 [(R)—N-((4-methoxy-6-methyl-2-oxo-1,2-dihydropyridin-3-yl)methyl)-2-methyl-1-(1-(1-(2,2,2-trifluoroethyl)piperidin-4-yl)ethyl)-1H-indole-3-carboxamide]
